According to paper PMC10669182, “Pyrazolo-triazolo-pyrimidine Scaffold as a Molecular Passepartout for the Pan-Recognition of Human Adenosine Receptors” (Biomolecules, 2023):
Where two headings read alike, the source gives them in different places.

Legend:
[1] = target: T1, human A2B adenosine receptor (Homo sapiens, UniProt P29275); assay: Radioligand binding, displacement of [3H]ZM241385 at human A2B receptors expressed in CHO cells; settings: 10 nM [3H]ZM241385, CHO cell membranes, 3 h room temperature; geometric mean with 95% confidence limits; reported for the first time; read-out: hA2B (Ki nM)
T1 construct: expressed in transfected cells; host or cells: CHO cells, stably transfected; membrane preparation
T1 sequence (P29275 1-332): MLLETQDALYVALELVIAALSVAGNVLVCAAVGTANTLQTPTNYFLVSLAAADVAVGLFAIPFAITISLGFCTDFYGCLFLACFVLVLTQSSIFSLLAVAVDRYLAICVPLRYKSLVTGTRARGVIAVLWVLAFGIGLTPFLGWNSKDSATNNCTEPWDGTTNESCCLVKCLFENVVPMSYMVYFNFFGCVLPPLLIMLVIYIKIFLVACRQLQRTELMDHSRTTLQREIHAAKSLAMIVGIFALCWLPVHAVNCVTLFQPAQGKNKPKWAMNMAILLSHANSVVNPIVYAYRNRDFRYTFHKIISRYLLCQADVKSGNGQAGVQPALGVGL
Procedure: All pharmacological methods followed the procedures described earlier. In brief, membranes for radioligand binding were prepared from CHO cells stably transfected with human adenosine receptor subtype (obtained as reported in reference) in a two-step procedure. In a first low-speed step (1000× g), cell fragments and nuclei were removed. The crude membrane fraction was sedimented from the supernatant at 100,000× g. The membrane pellet was resuspended in the buffer used for the respective binding experiments, frozen in liquid nitrogen, and stored at −80 °C.
Compounds were dissolved in DMSO and then diluted to the desired concentration in buffer, and at least 6 different concentrations were tested. DMSO in the final solution never exceeded 2%. For radioligand binding at A1 adenosine receptors, 1 nM [^3H]CCPA was used, whereas 30 and 10 nM [^3H]NECA were used for A2A and A3 receptors, respectively. Non-specific binding of [^3H]CCPA was determined in the presence of 1 mM theophylline; in the case of [^3H]NECA, 100 µM R-PIA was used. For radioligand binding assay of compounds 1–4 at A2B receptors, membranes (20 µg membrane protein) were incubated in a total volume of 200 µL (assay buffer: Tris/HCl pH 7.4, 10 mM MgCl2, 0.1% bovine serum albumin) with 10 nM [^3H]ZM241385. Non-specific binding of [^3H]ZM241385 was determined in the presence of 0.3 mM NECA. After 3 h at room temperature, samples were filtered and washed as described. Ki values from competition experiments were calculated with the program SCTFIT [32] and represented the mean of 3–6 replicates with 95% confidence limits.

[2] = target: human A3 adenosine receptor; settings: [3H]NECA, geometric mean with 95% confidence limits, read-out: hA3 (Ki nM), cited from earlier work
[3] = target: human A1 adenosine receptor; settings: [3H]CCPA, geometric mean with 95% confidence limits, read-out: hA1 (Ki nM), cited from earlier work
[4] = target: human A2A adenosine receptor; settings: [3H]NECA, geometric mean with 95% confidence limits, read-out: hA2A (Ki nM), cited from earlier work
hA2B adenosine receptor = target: hA2B adenosine receptor; set-up: method as in PMID 19501513, PMID 19908874; settings: NECA (5 μM)-stimulated adenylyl cyclase, hA2B-CHO membranes; geometric mean with 95% confidence limits; cited from earlier work
[5] = CHO cell membranes, compounds 1-7

Row | Structure (SMILES) | Ki [1] | Ki [2, 5] | Ki [3, 5] | Ki [4, 5] | IC50 (hA2B adenosine receptor) | Ki ([2]; CHO cells, compounds 8-12) | Ki ([3]; CHO cells, compounds 8-12) | Ki ([4]; CHO cells, compounds 8-12)
1 | Cn1cc2c(nc(NC(=O)C(c3ccccc3)c3ccccc3)n3nc(-c4ccco4)nc23)n1 [Compound 1] | 29.1 nM | 0.25 nM | 139 nM | 216 nM | 363 nM |  |  | 
2 | CCn1cc2c(nc(NC(=O)C(c3ccccc3)c3ccccc3)n3nc(-c4ccco4)nc23)n1 [Compound 2] | 18.3 nM | 0.98 nM | 156 nM | 131 nM | 745 nM |  |  | 
3 | CCCn1cc2c(nc(NC(=O)C(c3ccccc3)c3ccccc3)n3nc(-c4ccco4)nc23)n1 [Compound 3] | 13.3 nM | 0.93 nM | 80.2 nM | 46.5 nM | 491 nM |  |  | 
4 | CCCCn1cc2c(nc(NC(=O)C(c3ccccc3)c3ccccc3)n3nc(-c4ccco4)nc23)n1 [Compound 4] |  | 1.2 nM | 129 nM | 114 nM | 780 nM |  |  | 
5 | CC(C)CCn1cc2c(nc(NC(=O)C(c3ccccc3)c3ccccc3)n3nc(-c4ccco4)nc23)n1 [Compound 5] |  | 5.86 nM | 441 nM | 159 nM | > 10000 nM |  |  | 
6 | CCn1cc2c(nc(NC(=O)Cc3cccs3)n3nc(-c4ccco4)nc23)n1 [Compound 6] |  | 196 nM | 148 nM | 15.9 nM | > 10000 nM |  |  | 
7 | Cn1cc2c(nc(NC(=O)Cc3cccs3)n3nc(-c4ccco4)nc23)n1 [Compound 7] |  | 5.26 nM | 444 nM | 56 nM | > 10000 nM |  |  | 
8 | Cn1cc2c(nc(N)n3nc(-c4ccco4)nc23)n1 [Compound 8] |  |  |  |  |  | 300 nM | 101 nM | 2.8 nM
9 | CCn1cc2c(nc(N)n3nc(-c4ccco4)nc23)n1 [Compound 9] |  |  |  |  |  | 331 nM | 5 nM | 1.95 nM
10 | CCCn1cc2c(nc(N)n3nc(-c4ccco4)nc23)n1 [Compound 10] |  |  |  |  |  | 408 nM | 10 nM | 2.51 nM
11 | CCCCn1cc2c(nc(N)n3nc(-c4ccco4)nc23)n1 [Compound 11] |  |  |  |  |  | 600 nM | 14 nM | 1.6 nM
12 | CC(C)CCn1cc2c(nc(N)n3nc(-c4ccco4)nc23)n1 [Compound 12] |  |  |  |  |  | 700 nM | 2 nM | 
